The text below walks through data of patent publication US10570125B2, “(Cyano-dimethyl-methyl)-isoxazoles and -[1,3,4]thiadiazoles” (Centrexion Therapeutics Corporation, priority 2013, dated 2020).

Structures are written as SMILES.

One data set concerns the target human CB1R (Homo sapiens (Human), UniProt P21554). Put plainly: CB1 cAMP (assay 2). Particulars: CHO cells expressing human CB1R; inhibition of forskolin-stimulated cAMP. In kind it is cell-based.
The next data set addresses human MDR1 P-gp (Homo sapiens (Human), UniProt P08183). In words: MDCK assay: efflux in MDCK-MDR1 cell monolayers (assay 3). Particulars: pH 7.4, 37° C. In kind it is in vitro ADME. How it is done: C. Assessment of Efflux in Madin-Darby Canine Kidney Cells Transfected with the Human MDR1 Gene (MDCK Assay) (Assay 3)
Apparent permeability coefficients (PE) of the compounds across the MDCK-MDR1 cell monolayers are measured (pH 7.4, 37° C.) in apical-to-basal (AB) and basal-to-apical (BA) transport direction. AB permeability (PEAB) represents drug absorption from the blood into the brain and BA permeability (PEBA) drug efflux from the brain back into the blood via both passive permeability as well as active transport mechanisms mediated by efflux and uptake transporters that are expressed on the MDCK-MDR1 cells, predominantly by the overexpressed human MDR1 P-gp. The compounds are assigned to permeability/absorption classes by comparison of the AB permeabilities with the AB permeabilities of reference compounds with known in vitro permeability and oral absorption in the human. Identical or similar permeabilities in both transport directions indicate passive permeation, vectorial permeability points to additional active transport mechanisms. Higher PEBA than PEAB indicates the involvement of active efflux mediated by MDR1 P-gp. Active transport is concentration-dependently saturable. MDCK-MDR1 cells (1-2×10e5 cells/1 cm2 area) are seeded on filter inserts (Costar transwell polycarbonate or PET filters, 0.4 μm pore size) and cultured (DMEM) for 7 days. […]

Sequence of human MDR1 P-gp (P08183 whole entry): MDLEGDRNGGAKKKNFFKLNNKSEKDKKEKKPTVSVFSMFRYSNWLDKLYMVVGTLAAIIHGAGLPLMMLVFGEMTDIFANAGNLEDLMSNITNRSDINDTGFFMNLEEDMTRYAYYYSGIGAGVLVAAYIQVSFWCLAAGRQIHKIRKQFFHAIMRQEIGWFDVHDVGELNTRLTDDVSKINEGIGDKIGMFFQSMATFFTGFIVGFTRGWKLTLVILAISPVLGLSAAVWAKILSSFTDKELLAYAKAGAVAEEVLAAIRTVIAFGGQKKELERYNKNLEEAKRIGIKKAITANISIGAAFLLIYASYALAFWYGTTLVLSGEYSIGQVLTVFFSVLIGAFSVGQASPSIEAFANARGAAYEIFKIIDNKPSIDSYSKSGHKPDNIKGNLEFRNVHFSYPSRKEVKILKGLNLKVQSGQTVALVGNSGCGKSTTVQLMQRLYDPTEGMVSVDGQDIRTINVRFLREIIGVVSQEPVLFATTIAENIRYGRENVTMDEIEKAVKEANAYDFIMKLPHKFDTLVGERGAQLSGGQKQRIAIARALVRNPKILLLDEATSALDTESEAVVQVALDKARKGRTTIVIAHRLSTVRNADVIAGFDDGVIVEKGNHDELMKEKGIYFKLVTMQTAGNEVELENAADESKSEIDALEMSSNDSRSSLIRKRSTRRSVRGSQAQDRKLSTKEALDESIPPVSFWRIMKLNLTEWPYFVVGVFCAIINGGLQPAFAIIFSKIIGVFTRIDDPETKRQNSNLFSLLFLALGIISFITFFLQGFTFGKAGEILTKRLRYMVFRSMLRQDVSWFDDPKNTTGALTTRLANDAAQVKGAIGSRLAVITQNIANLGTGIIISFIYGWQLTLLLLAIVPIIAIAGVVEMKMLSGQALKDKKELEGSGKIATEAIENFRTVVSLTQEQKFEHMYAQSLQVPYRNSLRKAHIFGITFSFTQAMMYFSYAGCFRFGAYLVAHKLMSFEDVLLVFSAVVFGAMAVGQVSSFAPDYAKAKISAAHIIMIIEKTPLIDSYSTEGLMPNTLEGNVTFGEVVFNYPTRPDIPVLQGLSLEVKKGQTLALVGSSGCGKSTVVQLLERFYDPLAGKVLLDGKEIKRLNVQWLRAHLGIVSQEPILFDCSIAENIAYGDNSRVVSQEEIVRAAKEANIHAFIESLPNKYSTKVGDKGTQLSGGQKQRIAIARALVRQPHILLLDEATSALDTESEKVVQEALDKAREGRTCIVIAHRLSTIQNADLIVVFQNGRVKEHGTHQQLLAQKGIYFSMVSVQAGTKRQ
Sequence of human CB1R (P21554 whole entry): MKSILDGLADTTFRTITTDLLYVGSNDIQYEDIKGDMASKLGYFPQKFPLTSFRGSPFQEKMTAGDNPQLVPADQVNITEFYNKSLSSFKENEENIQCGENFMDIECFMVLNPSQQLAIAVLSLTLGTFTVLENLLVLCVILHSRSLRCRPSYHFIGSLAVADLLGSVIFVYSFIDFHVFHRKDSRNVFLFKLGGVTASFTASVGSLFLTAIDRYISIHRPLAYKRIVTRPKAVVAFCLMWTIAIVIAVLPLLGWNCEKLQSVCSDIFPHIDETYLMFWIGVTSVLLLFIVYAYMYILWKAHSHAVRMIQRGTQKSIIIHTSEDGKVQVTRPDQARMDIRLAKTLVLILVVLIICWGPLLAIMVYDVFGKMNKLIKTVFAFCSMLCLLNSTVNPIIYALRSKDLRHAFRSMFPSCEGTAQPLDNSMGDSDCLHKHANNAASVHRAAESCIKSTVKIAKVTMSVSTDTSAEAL

The compound `CC(C)(CO)c1cc(NC(=O)C(C)(C)S(=O)(=O)CCCC(F)(F)F)on1` [Example 7 WO2010036630] gave an EC50 at human CB1R of 28 µM. The efflux ratio at human MDR1 P-gp (dog, read-out: MDCK efflux ratio (BA/AB)) came to 6.9.

The compound `CC(C)(O)c1cc(NC(=O)C(C)(C)S(=O)(=O)CCCC(F)(F)F)on1` [Example 134 in WO2010036630] had an EC50 at human CB1R of 26 µM. Moreover, at human MDR1 P-gp, the “MDCK efflux ratio (BA/AB)” value turned out to be 3.2.
